From US20050070555A1, “Aroyl pyridinones” (Bayer HealthCare AG, priority 2001, published 2005)

target: p38 map kinase (Homo sapiens, UniProt Q16539); assay: P 38 Map Kinase Assay (SPA [33-P] serine/threonine kinase assay); format: biochemical; settings: 10 μM ATP, 2.5 μM biotinylated myelin basic protein substrate, 500 ng/well enzyme, 90 min, 30° C.
Description: The assay makes use of the serine/theonine protein kinase SPA [33-P]+assay kit from Amersham Phamacia Biotech. The assay is a homogeneous technique using SPA technology for the quantification of serine threonine kinase activity.
It is based on the p38 map kinase catalysed transfer of the γ-phosphate group of the [γ-^33P] […] to the substrate, biotinylated myelin basic protein (MBP). The resulting [^33P]-labelled biotinylated product is trapped on a PVT SPA bead containing scintillant which has been surface coated with streptavidin.
The beads are allowed to settle to eliminate high background, and therefore only ^33P labelled product attached to the SPA bead is detected.
The assay is carried out in the presence and absence of test compounds to determine their effect on p38 map kinase activity.
A test protocol is as follows:
• 1. SPA assay kit (Amersham). Components: • Assay buffer (store frozen) • Stop solution (store frozen). • Streptavidin coated SPA beads—reconstitute with 5 mls of PBS. (50 mg/ml). (Store in fridge) • 2. p 38 map kinase enzyme SCRD (500 μg/ml)—aliquoted in 1.5 mls. • dilute 1:10 to 50 μg/ml • 1 plate—110 μl (stock 500 μg/ml)+990 μl PBS. • 3. Assay reagent: • for 1 plate: 504 μl Assay buffer (500 Mm MOPS pH 7.2, 10 μM ATP, 50 mM MgCl2, 25 μM biotinylated myelin basic protein (MBP)). • 2513.4 μl Water • 1.1 μl 33-p-ATP (10 μCi/ul) (on activity date/adjust for activity date) • 4.534 μl×10^-2M ATP in water • 4. Stop solution: • for 1 plate: 265.92 μl streptavidin coated beads (50 mg/ml) • 1651.684 μl stop buffer (500 μM ATP, 50 mM EDTA 1% Triton X-100) • 7084.32 μl PBS. • 1. Add 10 μl compound Dilutons (5× final conc) Test wells. • 2. Add 10 μl 12.5% DMSO to control/blank wells. • 3. Add 10 μl enzyme (50 μg/ml) final conc 500 ng/well • 4. Add 10 μl PBS to blank wells. • 5. Add 30 μl of assay reagent to each well. (final conc 10 μM ATP, 2.5 μM substrate) • 6. Mix well on plate shaker. • 7. Incubate 90 min (30° C.) • 8. Add 75 μl of stop solution to each well (final conc 55 μM ATP) • 9. Spin plate: −3 min/1600 rpm/20° C. (alternatively leave to settle overnight) • 10. Read in Microbeta, Protocol SPA paralux 3.

Chain of p38 map kinase (Q16539 whole entry): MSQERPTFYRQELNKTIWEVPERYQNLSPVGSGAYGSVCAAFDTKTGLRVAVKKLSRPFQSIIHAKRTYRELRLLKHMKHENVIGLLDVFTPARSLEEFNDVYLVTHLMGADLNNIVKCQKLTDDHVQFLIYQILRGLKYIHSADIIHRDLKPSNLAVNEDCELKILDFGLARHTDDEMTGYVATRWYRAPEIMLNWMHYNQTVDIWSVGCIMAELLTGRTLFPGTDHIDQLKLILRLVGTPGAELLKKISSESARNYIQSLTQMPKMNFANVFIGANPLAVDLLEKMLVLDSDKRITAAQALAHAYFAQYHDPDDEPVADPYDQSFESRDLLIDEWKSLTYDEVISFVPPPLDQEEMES

| IC50 [µM] | SMILES |
| --- | --- |
| 0.164 | O=C(c1ccc(F)cc1F)c1ccc(=O)n2c1N[C@H]1CCCC[C@@H]12 [Example 2-1, (5aS,9aS)-4-(2,4-difluorobenzoyl)-5a,6,7,8,9,9a-hexahydropyrido[1,2-a]benzimidazol-1(5H)-one] |
| 0.34 | O=C(c1ccc(F)cc1F)c1ccc(=O)n2c1N[C@@H]1CCCC[C@@H]12 (racemic) [Example 1, (Rac-cis-5a,9a)-4-(2,4-difluorobenzoyl)-5a,6,7,8,9,9a-hexahydropyrido[1,2-a]benzimidazol-1(5H)-one] |
| 0.228 | O=C(c1cccc(Cl)c1)c1ccc(=O)n2c1N[C@@H]1CCCC[C@@H]12 (racemic) [Example 9, (Rac-cis-5a,9a)-4-(3-chlorobenzoyl)-5a,6,7,8,9,9a-hexahydropyrido[1,2-a]benzimidazol-1(5H)-one] |
| 0.455 | O=C(c1ccccc1)c1ccc(=O)n2c1N[C@@H]1CCCC[C@@H]12 (racemic) [Example 3, (Rac-cis-5a,9a)-4-benzoyl-5a,6,7,8,9,9a-hexahydropyrido[1,2-a]benzimidazol-1(5H)-one] |
| 1.8 | CC1(C)Cn2c(c(C(=O)c3ccc(Cl)cc3)ccc2=O)N1 [Example 21] |
| 0.386 | CC1(C)CNc2c(C(=O)c3ccc(F)cc3)ccc(=O)n2C1 [Example 24, 9-(4-Fluorobenzoyl)-3,3-dimethyl-1,2,3,4-tetrahydro-6H-pyrido[1,2-a]pyrimidin-6-one] |
